Assay results taken from PubChem BioAssay AID2305 (GlaxoSmithKline (GSK), 2010).

system: P. falciparum 3D7 growth, pLDH absorbance; assay: blood-stage malaria parasite growth potency – strain 3D7, dose response (AID 2305)

Structure (SMILES)	IC50 [µM]
CN1CC[C@@H](Oc2cc(Nc3nc(-c4ccc(C#N)cc4)cs3)ccc2Cl)C1	0.82
NC(=O)c1cccc(C(=O)Nc2cccc(-c3cccc(-c4nc5ccc(F)cc5[nH]4)c3)c2)c1	0.25
N#Cc1nc2ccc(OCCN(Cc3ccccc3C(F)(F)F)c3ccc(C#N)c(C(F)(F)F)c3)cc2s1	0.86
COc1ccc(C[C@H]2NC[C@H](O)[C@H]2OC(C)=O)cc1	0.14
Oc1ccc(CN2CCN(CCOC(c3ccc(F)cc3)c3ccc(F)cc3)CC2)cc1Cl	0.94
CN(C)c1ccc(CN2CCC(NC(=O)c3ccc(-c4cccc(C(F)(F)F)c4)s3)CC2)cc1	1.15
COc1cc(Nc2nccc(N3CCC(NC(=O)Nc4cc(C)ccc4C)C3)n2)cc(OC)c1OC (stereo not drawn)	1.12
COc1ccc2c(NN=Cc3cccc(F)c3)ccnc2c1	0.21
Cc1cnc2cc3c(cc2c1N1CCN(C)CC1)NCC3	0.78
Cc1ccccc1C(=O)Nc1cccc(-c2nc3ncccn3c2C)c1	0.76
CCc1cn2c3c(cc(C(=O)N[C@@H](Cc4cccc(Cl)c4)[C@H](O)CNC4CC4)cc13)N(C)S(=O)(=O)CC2	0.15
CC(=O)C=C1CC(=O)N(C[C@@H](O)[C@H]2O[C@@H]3OC(C)(C)O[C@@H]3[C@H]2O)c2ccccc2N1	1.26
Nc1nc(N)c2c(ccc3c2ccn3CCCF)n1	0.15
COc1ccccc1C1CCN(C2CCC(NC(=O)c3cc4cc(C(C)C)ccc4[nH]3)CC2)CC1 (stereo not drawn)	0.85
O=C(NC1CCC(CN2CCC(c3c[nH]c4ccccc34)CC2)CC1)C1(O)c2ccccc2-c2ccccc21 (stereo not drawn)	1.19
N#Cc1ccc(NC(=NCCc2c[nH]c3ccccc23)Nc2ccc(-c3ccccc3)cc2)c(O)c1	0.34
O=C(Nc1ccc(Br)cc1)N(CCN1CCOCC1)CC(O)COCc1ccc(Cl)c(Cl)c1 (stereo not drawn)	0.93
Cc1ccc(NC(=O)c2ccc3ncccc3c2)cc1OC1CCN(Cc2ccco2)C1 (stereo not drawn)	1.25
Cc1ccc(CNC(=O)[C@H](CC(C)C)Nc2cc(C)nc(NCC3CCCCC3)n2)cc1	0.93

Structure (SMILES)	IC50 [µM]
CCOC(=O)NCCSC(C)(C)[C@H](NC(=O)[C@H](Cc1cc2ccccc2s1)[C@H](CC)N(O)C=O)C(=O)Nc1nccs1	0.3
CC(C)c1ccc(CN2CCC(NC(=O)c3ccc(-c4cccc(F)c4)s3)CC2)cc1	1.33
COc1ccc2ccccc2c1CCCCN1CCN(CC(c2ccc(F)cc2)N2CCN(C3CCCC3)CC2)CC1 (stereo not drawn)	0.77
COc1ccc2c(NN=CC=Cc3ccccc3)ccnc2c1	0.77
CCN(CC)C(=O)C1CCN(C(C(=O)N2CCN(CC(=O)N3CCCC3)CC2)c2cc3ccccc3o2)CC1 (stereo not drawn)	0.71
COc1ccc(-n2cc(C(=O)c3cc(Br)ccc3O)cc(C#N)c2=O)cc1Cl	0.79
CN(c1ccc(F)cc1)S(=O)(=O)c1ccc(Cl)c(C(=O)Nc2cccc(C#N)c2)c1	0.7
O=C(NC1CCN(c2ccc(F)cc2[N+](=O)[O-])CC1)c1cccs1	0.67
CCOC(=O)c1ccc(NC(=O)NC2CCN(CCCCCNC(=O)/C=C/c3ccc(Cl)c(Cl)c3)C2)cc1 (stereo not drawn)	0.49
O=C(Nc1ccsc1)Nc1cccc(-c2cccc(-c3nc4ccc(C(F)(F)F)cc4[nH]3)c2)c1	0.15
O=C(/C=C/c1ccc(Cl)c(Cl)c1)NCCCCCN1CCCN(C(=O)Nc2ccc(Br)cc2)CC1	0.78
CN(C)CCC1CCN(CCS(=O)(=O)c2cccc(Nc3ccc(-c4ccsc4)cn3)c2)CC1	0.94
COc1ccc(CN2CCCC(OC(c3ccc(F)cc3)c3ccc(F)cc3)C2)c(O)c1 (stereo not drawn)	0.61
O=C(Nc1ccc(Oc2cccnc2)cc1)C1CCN(Cc2cc(Cl)ccc2O)CC1	1.35
O=C(Nc1ccc(-c2ccccc2)cc1)Nc1cccc(Cn2ncc(N3CCNCC3)c(Cl)c2=O)c1	0.46
Cc1cc(-c2cc(-c3ccc(OCCN(C)C)cc3)[nH]c2-c2ccc3c(c2)CCC3=NO)ccn1	0.87
CCCNCc1ccc(-c2ccc(CN(C(=O)c3nn(-c4ccccc4)nc3C)C3CC3)cc2)nc1	0.21
O=C(Nc1cccc(F)c1)N1CCC(CN2CCOC(c3ccccc3)(c3ccccc3)C2)CC1	0.2
CNC(=O)NC1=NC(C)(C)N(OCCCOc2cc(Cl)c(Cl)cc2Cl)C(N)=N1	0.93
